Drawing on patent US8338565B2, “Macrocyclic compounds for inhibition of tumor necrosis factor alpha” (Ensemble Therapeutics Corporation, priority 2008, dated 2012), this text covers IC50 for 33 compounds.

Each structure is given as a SMILES string. pIC50: −log10 of the molar value. Numbered stars: 1 amine (or outer) side, 2 acyl side, 3 side chain; on linkers, the order of the positions; unused ones are H or OH. Bridge positions count the residues as written; N and C are the ends. Square brackets hold non-standard residues; d marks the D form. Peptide text beside a SMILES is read from it. Tartaroyl(2R,3R-(OAc)2) = CC(=O)O[C@@H](C(=O)[*:1])[C@@H](OC(C)=O)C(=O)[*:2]; Phe(4-CF3) = N[C@@H](Cc1ccc(C(F)(F)F)cc1)C(=O)O; Phe(4-COOH) = N[C@@H](Cc1ccc(C(=O)O)cc1)C(=O)O; Bip = N[C@@H](Cc1ccc(-c2ccccc2)cc1)C(=O)O; dBip = N[C@H](Cc1ccc(-c2ccccc2)cc1)C(=O)O; dPhe(4-NH2) = Nc1ccc(C[C@@H](N)C(=O)O)cc1; Nip(3R) = O=C([C@@H]1CCCN([*:1])C1)[*:2]; Phe(4-Br) = N[C@@H](Cc1ccc(Br)cc1)C(=O)O; Phe(4-NH2) = Nc1ccc(C[C@H](N)C(=O)O)cc1; dPhe(2-Cl) = N[C@H](Cc1ccccc1Cl)C(=O)O; dIgl = N[C@@H](C(=O)O)C1Cc2ccccc2C1; d(hPhe) = N[C@H](CCc1ccccc1)C(=O)O; hPhe = N[C@@H](CCc1ccccc1)C(=O)O; 2Thi = N[C@@H](Cc1cccs1)C(=O)O; d2Thi = N[C@H](Cc1cccs1)C(=O)O; dPhg = N[C@@H](C(=O)O)c1ccccc1; Suc = O=C(CCC(=O)[*:2])[*:1]; Aib = CC(C)(N)C(=O)O; βAla = NCCC(=O)O

One experiment deals with T1, TNFα / TNFα receptor (TNFα R1/Fc) (Homo sapiens, UniProt P01375).
T1 construct: purchased R&D Systems
T1 sequence (P01375 77-233 limits assumed, species assumed): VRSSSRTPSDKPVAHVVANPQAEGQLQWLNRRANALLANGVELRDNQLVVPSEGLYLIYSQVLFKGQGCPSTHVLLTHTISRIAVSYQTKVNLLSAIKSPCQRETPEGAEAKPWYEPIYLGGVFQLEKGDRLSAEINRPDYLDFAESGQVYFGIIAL
As to the kind of experiment: Inhibition of binding of TNFα to the TNFα receptor (plate ELISA competition). Particulars: Activity (IC50, inhibition of TNFα binding to TNFα R1/Fc), Table 2. In a few lines: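 Plates were coated with TNFα at 15 nM. Test compound and 8.33 nM receptor-Fc (PBST, 2% DMSO) were first mixed in solution for 30 min at room temperature, then transferred to the plates for another 30 min. Competition was read by absorbance at 450 nm after HRP anti-human IgG Fc detection with TMB.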
In general terms: An ELISA detects its analyte on a solid surface through an enzyme-linked reagent.
For the compound `O=C1COc2ccc(cc2)C[C@@H](C(=O)N[C@@H](Cc2ccccc2)c2nnn[nH]2)NC(=O)[C@H](Cc2ccccc2)NC(=O)[C@@H](Cc2ccc(-c3ccccc3)cc2)NC(=O)[C@H](Cc2cccs2)N1` [Compound 590], the pIC50 was over 5.00.

The same experiment, now with this note: Table 2; read-out: Activity (IC50, inhibition of TNFα binding to TNFα R1/Fc).
In the case of `O=C1CCC(=O)N[C@H](Cc2cccs2)C(=O)N[C@@H](Cc2ccc(-c3ccccc3)cc2)C(=O)N[C@H](Cc2ccccc2)C(=O)N[C@H](C(=O)N[C@@H](CO)C(=O)O)Cc2ccc(cc2)N1` [Compound 22] ([d2Thi][Bip][dF][Phe(4-NH2)]S-OH; linker N-4 via Suc), the pIC50 was 4.00 to 4.52.
In the case of `O=C1COc2ccc(cc2)C[C@@H](C(=O)O)NC(=O)[C@H](CCc2ccccc2)NC(=O)[C@@H](Cc2ccc(-c3ccc(O)cc3)cc2)NC(=O)[C@H](Cc2cccs2)N1` [Compound 656], the pIC50 was over 5.00.
Still for that read-out and setting: the result for `O=C1COc2ccc(cc2)C[C@@H](C(=O)O)NC(=O)[C@H](Cc2cccc(C(F)(F)F)c2)NC(=O)[C@@H](Cc2ccc(-c3ccccc3)cc2)NC(=O)[C@H](Cc2ccncc2)N1` [Compound 648] reads over 5.00; that for `COc1ccc(-c2ccc(C[C@@H]3NC(=O)[C@@H](Cc4cccs4)NC(=O)[C@H](O)[C@@H](O)C(=O)Nc4ccc(cc4)C[C@@H](C(=O)O)NC(=O)[C@@H](Cc4ccccc4)NC3=O)cc2)cc1` [Compound 333], 4.00 to 4.52; that for `O=C1CCNC(=O)c2ccc(cc2)C[C@@H](C(=O)N[C@@H](Cc2ccccc2)C(=O)O)NC(=O)[C@@H](Cc2ccccc2)NC(=O)[C@H](Cc2ccc(-c3ccccc3)cc2)NC(=O)[C@@H](CCc2ccccc2)N1` [Compound 422] ([βAla][d(hPhe)][Bip][dF][Phe(4-COOH)]F-OH; lactam N-5), over 5.00.
Still for that read-out and setting: to `O=C1CCC(=O)N[C@@H](Cc2cccs2)C(=O)N[C@@H](Cc2ccc(-c3ccccc3)cc2)C(=O)N[C@H](Cc2ccccc2)C(=O)N[C@@H](C(=O)O)Cc2ccc(cc2)N1` [Compound 499] ([2Thi][Bip][dF][dPhe(4-NH2)]-OH; linker N-4 via Suc) belongs under 4.00; to `O=C1CCC(=O)N[C@H](Cc2cccs2)C(=O)N[C@@H](Cc2ccc(-c3ccccc3)cc2)C(=O)N[C@H](Cc2ccccc2)C(=O)N[C@H](C(=O)N2CCC[C@@H](C(=O)O)C2)Cc2ccc(cc2)N1` [Compound 38] ([d2Thi][Bip][dF][Phe(4-NH2)]-{Nip(3R)}; linker N-4 via Suc), 4.00 to 4.52.
`CC(=O)O[C@H]1C(=O)Nc2ccc(cc2)C[C@H](C(=O)N[C@@H](Cc2ccccc2)C(=O)O)NC(=O)[C@H](Cc2ccccc2)NC(=O)[C@@H](Cc2ccc(-c3ccccc3)cc2)NC(=O)[C@H](Cc2cccs2)NC(=O)[C@@H]1OC(C)=O` [Compound 413] ([2Thi][dBip]F[dPhe(4-NH2)]F-OH; linker N-4 via Tartaroyl(2R,3R-(OAc)2)): the pIC50 was under 4.00.
Regarding `CN(CCS(=O)(=O)O)C(=O)[C@@H]1Cc2ccc(cc2)OCC(=O)N[C@@H](Cc2cccs2)C(=O)N[C@H](Cc2ccc(-c3ccccc3)cc2)C(=O)N[C@@H](CCc2ccccc2)C(=O)N1` [Compound 605], the pIC50 is over 5.00.
The same measure, in the same setting: to `O=C1COc2ccc(cc2)C[C@@H](C(=O)N[C@@H](Cc2ccc(O)cc2)C(=O)O)NC(=O)[C@H](Cc2ccccc2)NC(=O)[C@@H](Cc2ccc(-c3ccccc3)cc2)NC(=O)[C@H](Cc2cccs2)N1` [Compound 387] belongs under 4.00; to `O=C(O)[C@@H]1Cc2ccc(cc2)NC(=O)[C@@H](O)[C@H](O)C(=O)N[C@H](Cc2cccs2)C(=O)N[C@@H](Cc2ccc(-c3ccccc3)cc2)C(=O)N[C@H](Cc2ccccc2)C(=O)N1` [Compound 185], under 4.00; to `COc1ccc(C[C@@H]2NC(=O)[C@@H](Cc3ccc(-c4ccccc4)cc3)NC(=O)[C@H](Cc3cccs3)NC(=O)COc3ccc(cc3)C[C@@H](C(=O)O)NC2=O)cc1` [Compound 630], 4.52 to 5.00.
As to `O=C1COc2ccc(cc2)C[C@@H](C(=O)N[C@H](Cc2ccccc2)C(=O)O)NC(=O)[C@H](Cc2ccc(O)cc2)NC(=O)[C@@H](Cc2ccc(-c3ccccc3)cc2)NC(=O)[C@H](Cc2cccs2)N1` [Compound 565], the pIC50 was over 5.00.
Still for that read-out and setting: to `NCCCC[C@H](NC(=O)[C@@H]1Cc2ccc(cc2)NC(=O)[C@H](O)[C@@H](O)C(=O)N[C@H](Cc2cccs2)C(=O)N[C@@H](Cc2ccc(-c3ccccc3)cc2)C(=O)N[C@H](Cc2ccccc2)C(=O)N1)C(=O)O` [Compound 360] belongs under 4.00; to `O=C1CCC(=O)N[C@H](CCc2ccccc2)C(=O)N[C@@H](Cc2ccc(C(F)(F)F)cc2)C(=O)N[C@H](Cc2ccccc2Cl)C(=O)N[C@H](C(=O)O)Cc2ccc(cc2)N1` [Compound 226] ([d(hPhe)][Phe(4-CF3)][dPhe(2-Cl)][Phe(4-NH2)]-OH; linker N-4 via Suc), 4.52 to 5.00.
The same measure, in the same setting: the result for `O=C(O)CCNC(=O)[C@@H]1Cc2ccc(cc2)C(=O)NCCC(=O)N[C@H](CCc2ccccc2)C(=O)N[C@@H](Cc2ccc(-c3ccccc3)cc2)C(=O)N[C@H](Cc2ccccc2)C(=O)N1` [Compound 420] ([βAla][d(hPhe)][Bip][dF][Phe(4-COOH)][βAla]-OH; lactam N-5) reads under 4.00.
The same measure, in the same setting: the result for `CC(=O)O[C@H]1C(=O)Nc2ccc(cc2)C[C@H](C(=O)O)NC(=O)[C@@H](CCc2ccccc2)NC(=O)[C@H](Cc2ccc(Br)cc2)NC(=O)[C@@H](Cc2ccccc2)NC(=O)[C@@H]1OC(C)=O` [Compound 218] ([dF][Phe(4-Br)][d(hPhe)][dPhe(4-NH2)]-OH; linker N-4 via Tartaroyl(2R,3R-(OAc)2)) reads 4.52 to 5.00.
As to `C[C@@H](NC(=O)[C@@H]1Cc2ccc(cc2)NC(=O)CCC(=O)N[C@H](Cc2ccccc2)C(=O)N[C@@H](Cc2ccc(-c3ccccc3)cc2)C(=O)N[C@H](CCc2ccccc2)C(=O)N1)C(=O)O` [Compound 457] ([dF][Bip][d(hPhe)][Phe(4-NH2)][dA]-OH; linker N-4 via Suc), the pIC50 was under 4.00.
In the case of `O=C1CCC(=O)N[C@H](Cc2cccs2)C(=O)N[C@H](Cc2ccc(-c3ccccc3)cc2)C(=O)N[C@H](Cc2ccccc2)C(=O)N[C@@H](C(=O)O)Cc2ccc(cc2)N1` [Compound 498] ([d2Thi][dBip][dF][dPhe(4-NH2)]-OH; linker N-4 via Suc), the pIC50 was under 4.00.
Still for that read-out and setting: to `O=C1CCC(=O)N[C@H](Cc2cccs2)C(=O)N[C@@H](CCc2ccccc2)C(=O)N[C@H](Cc2ccccc2)C(=O)N[C@H](C(=O)O)Cc2ccc(cc2)N1` [Compound 91] ([d2Thi][hPhe][dF][Phe(4-NH2)]-OH; linker N-4 via Suc) belongs under 4.00.
Same read-out and setting: to `O=C1COc2ccc(cc2)C[C@@H](C(=O)O)NC(=O)[C@@H](Cc2ccccc2)NC(=O)[C@@H](Cc2ccc(-c3ccccc3)cc2)NC(=O)[C@@H](Cc2cccs2)N1` [Compound 209] belongs under 4.00; to `O=C1CCC(=O)N[C@H](CCc2ccccc2)C(=O)N[C@@H](Cc2ccc(-c3cc(F)cc(F)c3)cc2)C(=O)N[C@H](Cc2ccccc2)C(=O)N[C@H](C(=O)O)Cc2ccc(cc2)N1` [Compound 182], 4.00 to 4.52; to `O=C1CCC(=O)N[C@H](C2Cc3ccccc3C2)C(=O)N[C@@H](Cc2ccc(C(F)(F)F)cc2)C(=O)N[C@H](Cc2ccccc2)C(=O)N[C@H](C(=O)O)Cc2ccc(cc2)N1` [Compound 165] ([dIgl][Phe(4-CF3)][dF][Phe(4-NH2)]-OH; linker N-4 via Suc), under 4.00.
Still for that read-out and setting: the result for `O=C1COc2ccc(cc2)C[C@H](C(=O)O)NC(=O)[C@H](CCc2ccccc2)NC(=O)[C@@H](Cc2ccc(-c3ccccc3)cc2)NC(=O)[C@H](Cc2cccs2)N1` [Compound 673] reads over 5.00; that for `CC(=O)O[C@H]1C(=O)Nc2ccc(cc2)C[C@H](C(=O)O)NC(=O)[C@@H](Cc2ccccc2)NC(=O)[C@H](Cc2ccc(Br)cc2)NC(=O)[C@@H](Cc2cccs2)NC(=O)[C@@H]1OC(C)=O` [Compound 232] ([d2Thi][Phe(4-Br)][dF][dPhe(4-NH2)]-OH; linker N-4 via Tartaroyl(2R,3R-(OAc)2)), under 4.00.
As to `O=C1COc2ccc(cc2)C[C@@H](C(=O)N[C@@H](Cc2ccccc2)C(=O)O)NC(=O)[C@H](Cc2ccccc2)NC(=O)[C@@H](Cc2ccc(-c3ccccc3)cc2)NC(=O)[C@H](Cc2cccs2)N1` [Compound 230], the pIC50 was 4.52 to 5.00.
In the case of `O=C1CCNC(=O)c2ccc(cc2)C[C@@H](C(=O)N[C@H](Cc2ccccc2)C(=O)O)NC(=O)[C@@H](Cc2ccccc2)NC(=O)[C@H](Cc2ccc(-c3ccccc3)cc2)NC(=O)[C@@H](CCc2ccccc2)N1` [Compound 423] ([βAla][d(hPhe)][Bip][dF][Phe(4-COOH)][dF]-OH; lactam N-5), the pIC50 is over 5.00.
Still for that read-out and setting: to `O=C1COc2ccc(cc2)C[C@@H](C(=O)O)NC(=O)[C@@H](CCc2ccccc2)NC(=O)[C@H](Cc2ccc(F)cc2)NC(=O)[C@@H](Cc2cccs2)N1` [Compound 527] belongs under 4.00; to `O=C1CCC(=O)N[C@H](c2ccccc2)C(=O)N[C@@H](Cc2ccc(-c3ccccc3)cc2)C(=O)N[C@H](Cc2ccccc2)C(=O)N[C@H](C(=O)O)Cc2ccc(cc2)N1` [Compound 120] ([dPhg][Bip][dF][Phe(4-NH2)]-OH; linker N-4 via Suc), under 4.00.
The same measure, in the same setting: to `CC(C)(NC(=O)[C@@H]1Cc2ccc(cc2)NC(=O)CCC(=O)N[C@H](Cc2cccs2)C(=O)N[C@@H](Cc2ccc(-c3ccccc3)cc2)C(=O)N[C@H](CCc2ccccc2)C(=O)N1)C(=O)O` [Compound 452] ([d2Thi][Bip][d(hPhe)][Phe(4-NH2)][Aib]-OH; linker N-4 via Suc) belongs under 4.00.
Same read-out and setting: to `COc1ccc(C[C@@H]2NC(=O)[C@@H](Cc3cccs3)NC(=O)CCC(=O)Nc3ccc(cc3)C[C@@H](C(=O)O)NC(=O)[C@@H](Cc3ccccc3)NC2=O)cc1` [Compound 104] ([d2Thi]Y(Me)[dF][Phe(4-NH2)]-OH; linker N-4 via Suc) belongs under 4.00.
On to `CN(C)C(=O)[C@@H]1Cc2ccc(cc2)NC(=O)CCC(=O)N[C@H](CCc2ccccc2)C(=O)N[C@@H](Cc2ccc(-c3ccccc3)cc2)C(=O)N[C@H](Cc2ccccc2)C(=O)N1` [Compound 370] ([d(hPhe)][Bip][dF][Phe(4-NH2)]-NMe2; linker N-4 via Suc), for which the pIC50 was under 4.00.
